The text below walks through data of article PMC7466159, “Anti-Metastasis Fascin Inhibitors Decrease the Growth of Specific Subtypes of Cancers” (Cancers, 2020).

Read-outs that look alike come from different tables or passages of the source.

The subject of series [1] is MDA-MB-468 tumor cells. Nature of the series: MDA-MB-468 breast cancer model in NSG mice (tumor growth, overall survival). The class given is in vivo. As to conditions: treatment from Day 14, compared with the control group. As to the method:
MDA-MB-468 cells and HCC38 cells grew in the presence of EGF with or without NP-G2-044. […] Finally, we used the animal model to investigate whether the primary tumor growth of MDA-MB-468 cells was sensitive to fascin inhibitors. MDA-MB-468 tumor cells were implanted into the mammary gland of NSG mice, and these mice were randomly divided into four groups. One group of mice was used as control (Figure 6I). The second group of mice was treated with the fascin inhibitor NP-G2-044 (Figure 6I). The third group was treated with the EGFR inhibitor gefitnib (Figure 6I), and the fourth group was treated with the combination of NP-G2-044 + gefitinib (Figure 6I). […] We dissected the primary tumor tissues 55 days after the tumor implantation from some mice. […] Furthermore, the overall survival of the mice was analyzed (Figure 6K).
For the breast cancer model, MDA-MB-468 cells (5 × 10^6) suspended in PBS-matrigel (v/v, 1:1) were injected subcutaneously into the abdominal mammary gland area of female NSG mice on Day 0 as previously described. Starting on Day 14, NP-G2-044 was given once a day for 5 days every week by gavage at 300 mg kg^−1 per mouse until their death. Starting on Day 14, gefitinib was given twice weekly by gavage at 150 mg kg^−1 per mouse until their death. The control solvent was given once a day for 5 days every week by gavage according to their body weight until their death. […] The primary tumor volume was calculated as length × width^2 ×π/6.

Series [2] has as its system 4T1 mouse triple-negative breast cancer cells. As to conditions: for inhibition of lung metastasis / IC50, metastasized 4T1 cells in the lungs: BALB/c mice, oral; for IC50, metastasized 4T1 cells in the lungs: Day 7 to Day 27. As to the method: In the second orthotopic spontaneous tumor metastasis mouse model, 4T1 mouse triple-negative breast cancer cells were injected into the mammary gland of BALB/c mice, and then the metastasis to the lung was monitored (Figure 2D,E). The 4T1 mouse tumor closely mimics human breast cancer in its anatomical site, immunogenicity, growth characteristics, and metastatic properties. From the mammary gland, the 4T1 tumor spontaneously metastasizes to a variety of target organs including lung, bone, brain, and liver. Seven days after the implantation of 4T1 tumor cells, we orally administered the mice with different concentrations of NP-G2-044 either once a day or twice a day for six days a week. After 28 days, the mice were sacrificed and examined for metastasis in the lungs.
Female BALB/c mice (6- to 8-week old) were purchased from Charles River Labs. The 4T1 tumor cells (1 × 10^5) were injected subcutaneously into the abdominal mammary gland area of mice using 0.1 mL of a single-cell suspension in PBS-matrigel (v/v, 1:1) on Day 0 as previously described. […] On Day 28, the mice were sacrificed. […] The numbers of metastatic 4T1 cells in lungs were determined by a clonogenic assay. In brief, the lungs were removed from each mouse, finely minced and digested in 5 mL of an enzyme cocktail containing 1 × PBS and 1 mg/mL collagenase type IV for 2 h at 37 ℃ on a platform rocker. After incubation, samples were filtered through 70-µm nylon cell strainers and washed twice with PBS. The resulting cells were suspended and plated with a series of dilutions in 10-cm tissue culture dishes in DMEM medium containing 60 µM thioguanine for clonogenic growth. As 4T1 tumor cells are resistant to 6-thioguanine, the metastasized tumor cells formed foci after 14 days, at which time they were fixed with 4% paraformaldehyde and stained with crystal violet staining solution for counting. For the experiments in Figure 2F,G, 4T1 tumor cells (1 × 10^5) suspended in PBS-matrigel (v/v, 1:1) were injected subcutaneously into the abdominal mammary gland area of mice on day 0. Starting on Day 3, NP-G2-044 was given to mice once every day by oral gavage at 100 mg kg^−1 per mouse. A vehicle solvent was given to the control group of mice once every day by gavage. Starting on Day 7, paclitaxel was given to mice twice a week by an intraperitoneal injection at 20 mg kg^−1 per mouse for two weeks. Primary tumors were removed on Day 14. All mice were killed for a clonogenic assay on Day 32.

Series [3] relates to MDA-MB-231 triple-negative breast cancer cells. Further details: method as in PMID 26081695, PMID 27071719. As to conditions: MDA-MB-231 cells; cited from earlier work.
The nature of series [4]: Plasma protein binding assay with mouse plasma. The class given is in vitro ADME. Conditions: in the presence of 100% serum.
The test system of series [5] is MDA-MB-231 human triple-negative breast cancer cells. The series is described as follows: Overall survival of MDA-MB-231 tumor-bearing mice. The class given is in vivo. Here is the method: The numbers of metastatic MDA-MB-231 cells in lungs were determined by a clonogenic assay. The lungs were removed from each mouse once sacrificed, and the resulting cells were suspended and plated with a series of dilutions in 10-cm tissue culture dishes in medium containing 2.0 µg/mL puromycin for clonogenic growth. As these MBA-MB-231 tumor cells were stably transfected with the vector pSuper-puro, the metastasized tumor cells formed foci after 14 days, at which time they were fixed with 4% paraformaldehyde and stained with crystal violet staining solution for counting. For combination treatments with chemotherapy, MDA-MB-231 tumor cells (1 × 10^5) suspended in PBS-matrigel (v/v, 1:1) were injected subcutaneously into the abdominal mammary gland area of mice on Day 0. Starting on Day 0, 7, or 14, NP-G2-044 was given to mice once a day for 6 days every week by oral gavage at 300 mg/kg per mouse. A vehicle solvent was given to the control mice once a day for 6 days every week. Starting on day 14, doxorubicin hydrochloride (MilliporeSigma, St. Louis, MO, USA) (2 mg/kg) and cyclophosphamide monohydrate (MilliporeSigma) (60 mg/kg) were given to mice once a week for four weeks. Primary tumors were removed on day 28. The death of the mice was used as the endpoint.

What is called fraction unbound is free concentration divided by total concentration. As for `Cc1occc1C(=O)Nc1nn(Cc2ccc(C(F)(F)F)cc2)c2ccccc12` [NP-G2-044], in series [1], the “growth of primary tumors” value was “reduced the growth of primary tumors to the same degree”. In addition, the “increase of median overall survival” value in series [1] is given as ~ 50%; in series [5] (NSG mice, compared with the control group, primary tumors removed on day 28) it was ~ 29%. Also, the “inhibition of lung metastasis” value in series [2] (30 mg/kg twice a day) and in series [2] (300 mg/kg once a day) was “almost complete inhibition” each time. In addition, the results for the “IC50, metastasized 4T1 cells in the lungs” value in series [2] (once a day) and in series [2] (twice a day) were 40 mg/kg and 5 mg/kg, respectively. The “tolerability of dosage regimen” value in series [2] (mouse, in vivo) is reported as “well tolerated with no signs of overt toxicity”. In addition, the induction of apoptosis result in series [3] is recorded as “did not induce the apoptosis”. The fraction unbound in series [4] was ~0.003. Besides, the “overall survival by start of treatment” value in series [5] (combination with chemotherapy, NP-G2-044 starting on Day 0 and Day 7 versus Day 14) is “longer overall survival”.
